Data reported in patent US12569454B2, “Nucleophilic chemicals useful in the treatment of cisplatin-induced sensory neuropathy and ototoxicity” (MONTEFIORE MEDICAL CENTER, priority 2018, dated 2026).

Tests used:
[1] = system: freshly isolated mouse hepatocytes; assay: CisPt effect on cell viability with or without protectant; format: cell-based; details: co-administration with CisPt, FIG. 3B
Source text: (§1) The enol compounds investigated in this study were gavinol, NAHA, and THA and as a point of comparison, the protective properties of thiol-based compounds, N-acetyl-L-cysteine (NAC) and sodium thiosulfate (STS), were also investigated.

neonatal rat DRG cells = assay: as above; format: cell-based; details: co-administration with CisPt, FIG. 3A
Source text: as §1

osteosarcoma (HOS) = assay: CisPt-induced cancer cell lethality; format: cell-based; details: for effect on ability of CisPt to kill cancer cells (IC75): co-incubated with graded CisPt, FIG. 5C
mouse = assay: Mouse studies: open field, balance beam, functional observational battery, treadmill; format: in vivo; details: open field observations, treadmill analysis
[2] = pKa of nucleophilic carbon atoms; format: physicochemical
neuroblastoma (SH-SY5) = assay: CisPt-induced cancer cell lethality; format: cell-based
glioblastoma (U87 MG) = assay: CisPt-induced cancer cell lethality; format: cell-based
DRG cells = assay: Lethality of pre-formed enol-Pt complexes and Pt drugs; details: 4 hours exposure
Description: (§2) DRG cells and isolated mouse hepatocytes were then exposed to enol-Pt complexes for 4 hours and the respective changes in lethality were determined.

[3] = system: isolated mouse hepatocytes; assay: as above; details: 4 hours exposure
Description: as §2

[4] = acute animal toxicity; cited from earlier work
[5] = 400-600 mg/kg per day for 60 days; cited from earlier work
[6] = complexes pre-incubated 30 mins

SMILES	protection against CisPt toxicity [1]	protection against CisPt toxicity (neonatal rat DRG cells)	effect on ability of CisPt to kill cancer cells (IC75) (osteosarcoma (HOS))	toxicity in mouse studies (mouse)	also measured
CC(=O)N[C@@H](CS)C(=O)O [NAC, N-acetyl-L-cysteine, reference compound]	only modest protection	only modest protection	–	–	–
CC(=O)Nc1cc(O)c(C(C)=O)c(O)c1 [NAHA, 4-N-acetyl-2,6-dihydroxyacetaphenone]	substantial cryoprotection	substantial cryoprotection	significantly lowered the respective IC75S	not toxic	pKa [2]: 7.9
O=S([O-])([O-])=S.[Na+].[Na+] [STS, sodium thiosulfate, reference compound]	only modest protection	only modest protection	did not modify CisPt-induced cancer cell toxicity	–	effect on ability of CisPt to kill cancer cells (IC75) (neuroblastoma (SH-SY5); co-incubated with graded CisPt, FIG. 5A): did not modify CisPt-induced cancer cell toxicity; effect on ability of CisPt to kill cancer cells (IC75) (glioblastoma (U87 MG); co-incubated with graded CisPt, FIG. 5B): did not modify CisPt-induced cancer cell toxicity
N.N.O=C([O-])C1(C(=O)[O-])CCC1.[Pt+2] [CarboPt, carboplatin]	–	–	–	–	cytotoxicity relative to that caused by CisPt or OxaliPt (DRG cells): intermediate cytotoxicity; cytotoxicity (lethality) (DRG cells; [6]): substantial concentration-dependent DRG and hepatocyte lethality; cytotoxicity relative to that caused by CisPt or OxaliPt [3]: intermediate cytotoxicity; cytotoxicity (lethality) [3, 6]: substantial concentration-dependent DRG and hepatocyte lethality; cancer cell lethality (neuroblastoma (SH-SY5); FIG. 6C, compared with CisPt): reduced cancer cell lethality; cancer cell lethality (glioblastoma (U87 MG); FIG. 6A, compared with CisPt): reduced cancer cell lethality; cancer cell lethality (osteosarcoma (HOS); FIG. 6B, compared with CisPt): reduced cancer cell lethality
CC(=O)c1c(O)cc(O)cc1O [THA, 2′,4′,6′-trihydroxyacetophenone]	substantial cryoprotection	substantial cryoprotection	–	not toxic	–
CC(=O)C1CCCC1=O (centres unmarked) [2-ACP, 2-acetylcyclopentanone]	–	–	–	not toxic	LD50 [4]: > 800 mg/kg; systemic toxicity [5]: low incidence of systemic toxicity
CC(=O)c1c(O)cc(NC(=O)C2CCCC2=O)cc1O (centres unmarked) [gavinol, N-(4-acetyl-3,5-dihydroxyphenyl)-2-oxocyclopentane-1-carboxamide]	substantial cryoprotection	substantial cryoprotection	significantly lowered the respective IC75S	not toxic	–
